Laboratory results reported in ChEMBL document CHEMBL1149523, “Inhibition of HIV-1 integrase activity by synthetic peptides derived from the HIV-1 HXB2 Pol region of the viral genome” (Bioorg Med Chem Lett, 2006).

Experiments:
[1] = target: T1, Human immunodeficiency virus type 1 integrase (Human immunodeficiency virus 1, UniProt Q7ZJM1, C130A); assay: Inhibition of HIV1 integrase C130A mutant strand transfer step
[2] = target: Human immunodeficiency virus type 1 integrase (Human immunodeficiency virus 1, UniProt Q7ZJM1, C280S/F182K); assay: Inhibition of soluble HIV1 integrase F182K/ C280S mutant 3' processing step
[3] = target: T2, Human immunodeficiency virus type 1 integrase (Human immunodeficiency virus 1, UniProt Q7ZJM1); assay: Inhibition of wild type HIV1 integrase strand transfer step
T2 sequence (Q7ZJM1 whole entry): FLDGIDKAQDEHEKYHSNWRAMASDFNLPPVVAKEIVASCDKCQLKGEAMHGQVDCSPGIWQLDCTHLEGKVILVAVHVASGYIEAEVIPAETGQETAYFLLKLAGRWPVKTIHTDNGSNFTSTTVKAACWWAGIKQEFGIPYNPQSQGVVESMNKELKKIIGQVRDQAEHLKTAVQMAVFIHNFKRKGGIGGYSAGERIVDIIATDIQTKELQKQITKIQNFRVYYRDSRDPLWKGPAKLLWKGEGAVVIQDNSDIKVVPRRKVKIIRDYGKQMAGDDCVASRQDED

[4] = target: T2, Human immunodeficiency virus type 1 integrase; assay: Inhibition of wild type HIV1 integrase 3' processing step
[5] = target: T1, Human immunodeficiency virus type 1 integrase; assay: Inhibition of mutant HIV1 integrase C130A mutant 3' processing step
[6] = target: Human immunodeficiency virus type 1 integrase (Human immunodeficiency virus 1, UniProt Q7ZJM1, C280S/F185K); assay: Inhibition of soluble HIV1 integrase F185K/C280S mutant strand transfer step
Sequence of Human immunodeficiency virus type 1 integrase (Human immunodeficiency virus 1, UniProt Q7ZJM1, C280S/F185K) (Q7ZJM1 entry or part of it C280S/F185K): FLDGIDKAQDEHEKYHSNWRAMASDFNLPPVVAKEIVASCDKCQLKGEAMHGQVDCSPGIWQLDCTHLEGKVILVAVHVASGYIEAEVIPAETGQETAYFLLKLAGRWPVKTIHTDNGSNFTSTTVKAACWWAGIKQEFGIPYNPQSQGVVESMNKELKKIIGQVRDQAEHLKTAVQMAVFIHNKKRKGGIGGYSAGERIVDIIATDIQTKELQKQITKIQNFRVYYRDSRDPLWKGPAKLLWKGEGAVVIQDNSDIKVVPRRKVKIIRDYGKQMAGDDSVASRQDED

[7] = target: T3, Human immunodeficiency virus type 1 integrase (Human immunodeficiency virus 1, UniProt Q7ZJM1, C130S); assay: Inhibition of HIV1 integrase C130S mutant 3' processing step
T3 sequence (Q7ZJM1 entry or part of it C130S): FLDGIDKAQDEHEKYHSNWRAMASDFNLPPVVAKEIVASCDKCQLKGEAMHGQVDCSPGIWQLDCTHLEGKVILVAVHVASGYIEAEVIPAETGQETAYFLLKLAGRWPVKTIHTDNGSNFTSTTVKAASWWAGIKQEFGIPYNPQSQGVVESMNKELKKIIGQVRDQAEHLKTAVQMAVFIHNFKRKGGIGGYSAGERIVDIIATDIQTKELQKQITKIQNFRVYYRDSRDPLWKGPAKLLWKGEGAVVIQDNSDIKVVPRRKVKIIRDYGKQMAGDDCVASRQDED

[8] = target: T3, Human immunodeficiency virus type 1 integrase; assay: Inhibition of HIV1 integrase C130S mutant strand transfer step

T1 sequence (Q7ZJM1 entry or part of it C130A): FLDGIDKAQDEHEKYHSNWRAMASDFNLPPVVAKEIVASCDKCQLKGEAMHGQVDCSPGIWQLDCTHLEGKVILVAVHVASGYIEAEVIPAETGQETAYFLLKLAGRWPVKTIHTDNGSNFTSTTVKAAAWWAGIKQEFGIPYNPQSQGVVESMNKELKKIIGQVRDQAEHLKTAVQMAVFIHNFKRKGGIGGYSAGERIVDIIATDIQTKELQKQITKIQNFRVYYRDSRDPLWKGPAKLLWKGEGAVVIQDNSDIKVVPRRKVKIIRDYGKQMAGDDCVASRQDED

Compound	IC50 [1]	IC50 [2]	IC50 [3]	IC50 [4]	IC50 [5]	IC50 [6]	IC50 [7]	IC50 [8]
CC[C@H](C)[C@H](NC(=O)[C@H](CO)NC(=O)[C@H](CCC(=O)O)NC(=O)[C@@H](NC(=O)[C@@H](NC(=O)[C@@H](NC(=O)[C@H](CCCCN)NC(=O)[C@H](CCC(N)=O)NC(=O)[C@@H](NC(=O)[C@H](C)NC(=O)[C@H](CCC(=O)O)NC(=O)[C@@H](NC(=O)[C@H](CC(C)C)NC(=O)[C@H](CCC(N)=O)NC(=O)[C@@H](N)CCCCN)[C@@H](C)O)C(C)C)[C@@H](C)CC)[C@@H](C)O)[C@@H](C)O)C(=O)N[C@H](C(=O)N[C@H](C(=O)N[C@@H](Cc1c[nH]c2ccccc12)C(=O)NCC(=O)N[C@@H](CCCCN)C(=O)O)[C@@H](C)CC)C(C)C	10 µM	51 µM	4 µM	7 µM	15 µM	31 µM	29 µM	2 µM
CC[C@H](C)[C@H](NC(=O)[C@H](Cc1c[nH]c2ccccc12)NC(=O)[C@@H](NC(=O)[C@H](C)NC(=O)[C@H](CCC(N)=O)NC(=O)[C@H](Cc1c[nH]c2ccccc12)NC(=O)[C@H](Cc1ccc(O)cc1)NC(=O)[C@H](CCC(=O)O)NC(=O)[C@@H](NC(=O)[C@H](Cc1c[nH]c2ccccc12)NC(=O)[C@H](Cc1c[nH]c2ccccc12)NC(=O)[C@@H](NC(=O)[C@H](CCC(=O)O)NC(=O)[C@H](Cc1c[nH]c2ccccc12)NC(=O)[C@@H](NC(=O)[C@@H](N)CCC(=O)O)[C@@H](C)O)[C@@H](C)O)[C@@H](C)O)[C@@H](C)O)C(=O)N1CCC[C@H]1C(=O)N[C@@H](CCC(=O)O)C(=O)N[C@@H](Cc1c[nH]c2ccccc12)C(=O)N[C@@H](CCC(=O)O)C(=O)O	5 µM	13 µM	2 µM	6 µM	25 µM	9 µM	126 µM	27 µM
CC[C@H](C)C(NC(=O)[C@H](CCC(=O)O)NC(=O)[C@H](CC(C)C)NC(=O)[C@H](CC(=O)O)NC(=O)[C@H](CO)NC(=O)CNC(=O)[C@@H](NC(=O)[C@H](Cc1ccc(O)cc1)NC(=O)[C@H](CC(C)C)NC(=O)[C@H](CC(=O)O)NC(=O)[C@H](CC(=O)O)NC(=O)[C@H](CCSC)NC(=O)[C@H](Cc1ccc(O)cc1)NC(=O)[C@H](CCC(N)=O)NC(=O)[C@H](Cc1ccc(O)cc1)NC(=O)[C@@H](NC(=O)[C@@H](NC(=O)[C@@H](NC(=O)[C@H](CC(=O)O)NC(=O)[C@@H]1CCCN1)[C@@H](C)CC)C(C)C)[C@@H](C)CC)C(C)C)C(=O)O (stereo not given in full)	5 µM	28 µM	10 µM	6 µM	20 µM	23 µM	41 µM	2 µM
CC[C@H](C)[C@H](NC(=O)CNC(=O)[C@H](CC(C)C)NC(=O)[C@H](C)NC(=O)[C@H](Cc1ccc(O)cc1)NC(=O)[C@H](CCC(N)=O)NC(=O)[C@H](CO)NC(=O)[C@H](CC(=O)O)NC(=O)[C@@H](NC(=O)[C@@H](NC(=O)[C@@H](NC(=O)[C@H](CC(N)=O)NC(=O)[C@@H](NC(=O)[C@H](CCC(=O)O)NC(=O)[C@H](CC(C)C)NC(=O)CNC(=O)[C@H](CO)NC(=O)[C@H](CC(=O)O)NC(=O)[C@H](CCC(N)=O)NC(=O)[C@@H](N)CC(C)C)C(C)C)[C@@H](C)CC)C(C)C)[C@@H](C)O)C(=O)O	20 µM	> 167 µM	2 µM	11 µM	> 167 µM	36 µM	18 µM	4 µM
CC[C@H](C)[C@H](NC(=O)[C@H](CC(C)C)NC(=O)[C@H](CCC(N)=O)NC(=O)[C@H](CCC(=O)O)NC(=O)[C@@H](NC(=O)[C@@H](NC(=O)[C@H](CCC(N)=O)NC(=O)[C@H](CC(N)=O)NC(=O)[C@@H](NC(=O)[C@H](CC(C)C)NC(=O)[C@@H](N)CCC(=O)O)C(C)C)[C@@H](C)CC)[C@@H](C)CC)C(=O)N[C@@H](CCCCN)C(=O)N[C@@H](CCCCN)C(=O)N[C@@H](CCC(=O)O)C(=O)N[C@@H](CCCCN)C(=O)N[C@H](C(=O)N[C@@H](Cc1ccc(O)cc1)C(=O)N[C@@H](CC(C)C)C(=O)N[C@@H](C)C(=O)N[C@@H](Cc1c[nH]c2ccccc12)C(=O)O)C(C)C	15 µM	113 µM	14 µM	15 µM	45 µM	83 µM	136 µM	7 µM
